In PMC4069108 (PLoS ONE, 2014):

Key:
[1] = target: T1, recombinant human MT1 receptor purified from Pichia pastoris (MT1 purified) (Homo sapiens, UniProt P48039); assay: [3H]-melatonin competition, PEG precipitation and filtration; assay type: binding; conditions: for MT1 purified / pKi ± SEM: purified in […] Fos14/[…] CHAPS; […] [3H]-melatonin, […] CHAPS/[…] CHS, pH […] MgCl2, […] °C, […] h
T1 construct: gene MTNR1A; alpha-factor signal, Flag and 10-His tags
Excerpt: [3H]-melatonin competition, PEG precipitation and filtration on recombinant human MT1 receptor purified from Pichia pastoris (MT1 purified)

[2] = target: T2, human melatonin MT1 receptor (MT1 CHO membranes) (Homo sapiens, UniProt P48039); assay: [3H]-melatonin competition, filtration; assay type: binding; conditions: for MT1 CHO membranes / pKi ± SEM: CHO membranes; […] [3H]-melatonin, pH […] MgCl2, […] °C, […] h
T2 construct: gene MTNR1A; receptor cDNA in pcDNA3.1, no tag mentioned; crude membranes
Excerpt: [3H]-melatonin competition, filtration on human melatonin MT1 receptor (MT1 CHO membranes)

T2 sequence (P48039 whole entry): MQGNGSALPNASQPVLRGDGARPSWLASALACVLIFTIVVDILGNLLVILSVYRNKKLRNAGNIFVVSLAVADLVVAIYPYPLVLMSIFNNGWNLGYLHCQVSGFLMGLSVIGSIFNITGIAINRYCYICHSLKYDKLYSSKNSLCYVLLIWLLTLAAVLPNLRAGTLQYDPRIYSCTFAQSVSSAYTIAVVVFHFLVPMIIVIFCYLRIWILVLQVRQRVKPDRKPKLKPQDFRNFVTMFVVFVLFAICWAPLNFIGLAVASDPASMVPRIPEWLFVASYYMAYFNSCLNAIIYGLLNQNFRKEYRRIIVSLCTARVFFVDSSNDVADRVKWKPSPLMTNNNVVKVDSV
T1 sequence (P48039 whole entry): as above

Row | Ki ([1]; read-out: MT1 purified / pKi ± SEM (converted)) [µM] | Ki ([2]; read-out: MT1 CHO membranes / pKi ± SEM (converted)) [µM] | MT1 purified / pKi ± SEM [1] | MT1 CHO membranes / pKi ± SEM [2] | SMILES
1 | > 10 | > 10 |  |  | NCCc1c[nH]c2ccc(O)cc12 [5HT]
2 |  |  | 7.02±0.14 pKi (-log M) | 7.71±0.14 pKi (-log M) | COc1ccc2ncn(CCNC(C)=O)c2c1 [S 21278]
3 |  |  | 7.25±0.06 pKi (-log M) | 7.76±0.15 pKi (-log M) | COc1ccc(CCN(C)CCCC(C#N)(c2cc(OC)c(OC)c(OC)c2)C(C)C)cc1OC (centres unmarked) [D600]
4 |  |  | 8.51±0.12 pKi (-log M) | 7.32±0.31 pKi (-log M) | COc1ccc2[nH]c(-c3cccc4ccccc34)c(CCNC(=O)CI)c2n1 [S 70254]
